The target in data set [1] is T1, A disintegrin and metalloproteinase with thrombospondin motifs 4 (Homo sapiens, UniProt O75173).
T1 sequence (O75173 whole entry): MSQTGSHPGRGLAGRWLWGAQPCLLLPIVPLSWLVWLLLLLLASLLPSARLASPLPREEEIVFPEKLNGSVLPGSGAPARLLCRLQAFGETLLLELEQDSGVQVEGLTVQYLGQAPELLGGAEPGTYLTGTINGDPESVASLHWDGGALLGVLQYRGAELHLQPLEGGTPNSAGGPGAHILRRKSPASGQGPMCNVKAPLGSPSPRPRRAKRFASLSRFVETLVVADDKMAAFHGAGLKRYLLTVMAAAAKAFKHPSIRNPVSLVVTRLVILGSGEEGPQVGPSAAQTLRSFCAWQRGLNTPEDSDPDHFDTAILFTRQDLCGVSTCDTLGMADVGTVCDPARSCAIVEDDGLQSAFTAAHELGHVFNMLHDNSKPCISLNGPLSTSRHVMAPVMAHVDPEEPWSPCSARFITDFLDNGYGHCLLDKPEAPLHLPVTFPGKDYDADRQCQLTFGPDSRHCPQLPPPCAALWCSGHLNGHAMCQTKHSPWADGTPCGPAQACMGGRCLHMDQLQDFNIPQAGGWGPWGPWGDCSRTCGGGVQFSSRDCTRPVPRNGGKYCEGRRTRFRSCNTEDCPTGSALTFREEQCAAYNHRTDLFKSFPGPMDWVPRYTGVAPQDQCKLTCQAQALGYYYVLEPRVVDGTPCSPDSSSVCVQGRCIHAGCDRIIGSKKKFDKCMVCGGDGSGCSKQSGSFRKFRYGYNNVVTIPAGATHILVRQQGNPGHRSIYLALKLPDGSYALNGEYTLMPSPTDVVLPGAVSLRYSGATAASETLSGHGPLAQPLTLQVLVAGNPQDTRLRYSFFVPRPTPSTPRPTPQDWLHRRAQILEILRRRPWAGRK

The target in data set [2] is T2, A disintegrin and metalloproteinase with thrombospondin motifs 4 (Homo sapiens) (UniProt O75173).
T2 sequence (whole entry): T1 sequence (O75173 whole entry)
Nature of the data set: Inhibitory activity against human Aggrecanase 1.

The target in a further data set is T3, Interstitial collagenase (Homo sapiens, UniProt P03956).
T3 sequence (P03956 whole entry): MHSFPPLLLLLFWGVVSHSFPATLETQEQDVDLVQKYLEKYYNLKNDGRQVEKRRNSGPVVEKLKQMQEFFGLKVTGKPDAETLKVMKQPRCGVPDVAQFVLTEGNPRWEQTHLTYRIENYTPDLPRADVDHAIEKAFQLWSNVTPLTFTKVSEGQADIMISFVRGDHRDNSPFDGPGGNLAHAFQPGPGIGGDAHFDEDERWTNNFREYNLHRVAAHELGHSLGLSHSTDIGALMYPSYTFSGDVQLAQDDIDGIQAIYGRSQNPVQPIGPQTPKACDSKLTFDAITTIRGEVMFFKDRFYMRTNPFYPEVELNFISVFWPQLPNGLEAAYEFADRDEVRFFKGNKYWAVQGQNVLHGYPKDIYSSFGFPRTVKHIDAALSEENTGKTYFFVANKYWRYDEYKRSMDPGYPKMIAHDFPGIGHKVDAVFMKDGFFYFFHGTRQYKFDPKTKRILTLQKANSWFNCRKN
Nature of the data set: Inhibitory activity against MMP1.

Data set [3] has as its target 72 kDa type IV collagenase (Homo sapiens, UniProt P08253). Nature of the data set: Inhibitory activity against MMP2.
In data set [4] the target is Matrix metalloproteinase-14 (Homo sapiens, UniProt P50281). Nature of the data set: Inhibitory activity against MMP14.
The nature of data set [5]: Clearance in male Sprague-Dawley rats. The data set is classed as ADME, organism-based. The settings on record: rat, in vivo.
A short description of data set [6]: Oral bioavailability in male Sprague-Dawley rats. The data set is classed as ADME, organism-based. The settings on record: rat, in vivo.
A short description of data set [7]: Half life in male Sprague-Dawley rats. The data set is classed as ADME, organism-based. Particulars: rat, in vivo.
The nature of data set [8]: Cmax in male Sprague-Dawley rats. The data set is classed as ADME, organism-based. Particulars: rat, in vivo.
Data set [9] concerns the target T4, A disintegrin and metalloproteinase with thrombospondin motifs 4 (Bos taurus) (UniProt Q9TT93).
T4 sequence (whole entry): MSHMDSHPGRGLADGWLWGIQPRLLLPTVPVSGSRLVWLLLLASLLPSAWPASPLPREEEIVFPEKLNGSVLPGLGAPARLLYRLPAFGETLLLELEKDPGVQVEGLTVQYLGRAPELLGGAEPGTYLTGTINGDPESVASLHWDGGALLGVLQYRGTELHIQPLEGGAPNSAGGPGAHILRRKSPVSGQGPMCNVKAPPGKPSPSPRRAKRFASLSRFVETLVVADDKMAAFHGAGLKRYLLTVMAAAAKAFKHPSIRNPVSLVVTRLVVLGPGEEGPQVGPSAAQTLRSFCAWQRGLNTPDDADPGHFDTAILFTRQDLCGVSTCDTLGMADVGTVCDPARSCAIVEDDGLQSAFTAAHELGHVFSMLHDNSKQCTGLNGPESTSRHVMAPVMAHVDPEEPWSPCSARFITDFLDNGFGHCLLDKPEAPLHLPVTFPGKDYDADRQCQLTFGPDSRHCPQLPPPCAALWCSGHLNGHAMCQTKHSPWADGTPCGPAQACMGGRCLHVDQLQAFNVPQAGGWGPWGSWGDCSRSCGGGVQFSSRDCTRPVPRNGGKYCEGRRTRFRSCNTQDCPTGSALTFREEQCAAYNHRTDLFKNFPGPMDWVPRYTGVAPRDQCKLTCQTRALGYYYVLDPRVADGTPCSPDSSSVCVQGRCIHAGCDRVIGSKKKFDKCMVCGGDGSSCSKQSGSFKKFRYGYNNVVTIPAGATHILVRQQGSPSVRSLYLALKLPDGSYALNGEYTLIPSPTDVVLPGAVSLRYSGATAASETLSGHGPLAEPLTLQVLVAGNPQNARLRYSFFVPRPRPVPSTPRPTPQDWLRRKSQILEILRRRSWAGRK
Nature of the data set: Inhibition of IL1induced proteoglycan degradation in bovine cartilage, 3 day incubation at 10 ug/mL. Format: functional.

The next data set concerns the target Collagenase 3 (Homo sapiens, UniProt P45452).

22 molecules from ChEMBL document CHEMBL1147767, “Synthesis and biological evaluation of biphenylsulfonamide carboxylate aggrecanase-1 inhibitors” (Bioorg Med Chem Lett, 2006) can be followed below.

Active and inactive are the calls of the source. No cut-off for these calls is given here.

Sequence of 72 kDa type IV collagenase (P08253 whole entry): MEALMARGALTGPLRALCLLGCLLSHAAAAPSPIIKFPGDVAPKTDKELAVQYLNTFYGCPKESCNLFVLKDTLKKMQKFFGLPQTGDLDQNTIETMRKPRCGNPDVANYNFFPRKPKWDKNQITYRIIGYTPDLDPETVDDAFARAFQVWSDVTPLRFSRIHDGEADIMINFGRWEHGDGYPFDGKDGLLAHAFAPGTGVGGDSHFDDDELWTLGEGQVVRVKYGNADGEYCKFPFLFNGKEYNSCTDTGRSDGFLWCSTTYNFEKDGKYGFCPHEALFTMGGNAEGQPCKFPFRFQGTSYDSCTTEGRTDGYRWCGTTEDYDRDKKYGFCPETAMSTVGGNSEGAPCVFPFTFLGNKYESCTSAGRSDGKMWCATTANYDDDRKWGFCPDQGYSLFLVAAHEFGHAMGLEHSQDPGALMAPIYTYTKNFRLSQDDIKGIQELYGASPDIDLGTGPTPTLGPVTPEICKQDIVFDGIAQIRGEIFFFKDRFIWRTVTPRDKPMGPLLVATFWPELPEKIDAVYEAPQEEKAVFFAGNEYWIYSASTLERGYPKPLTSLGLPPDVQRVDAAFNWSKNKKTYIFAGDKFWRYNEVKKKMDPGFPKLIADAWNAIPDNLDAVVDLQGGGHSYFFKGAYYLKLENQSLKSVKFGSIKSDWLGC

Consider `C[C@@H](NS(=O)(=O)c1ccc(-c2ccccc2)cc1)C(=O)O`, for which half-maximal inhibition in data set [1] (IC50) required 5.5 µM.
In turn, `CC(C)[C@@H](NS(=O)(=O)c1ccc(-c2ccc(CC(=O)c3cc4ccccc4o3)cc2)cc1)C(=O)O` gave a concentration for half-maximal inhibition (IC50) in data set [1] of 3.8 µM.
Molecule `COc1ccc(S(=O)(=O)N(Cc2cccnc2)[C@@H](C(=O)NO)C(C)C)cc1` showed an inhibition in data set [2] (concentration not given here) of 92%.
As for `CC(C)[C@@H](NS(=O)(=O)c1ccc(-c2ccccc2O)cc1)C(=O)O`, half-maximal inhibition in data set [1] (IC50) was put at 20 µM.
In turn, `CC(C)C(CC(=O)O)NS(=O)(=O)c1ccc(-c2ccccc2)cc1` (stereo unspecified) registered an IC50 in [1] of 100 µM.
In the case of `CC(C)[C@@H](NS(=O)(=O)c1ccc(-c2ccccc2[N+](=O)[O-])cc1)C(=O)O`, half-maximal inhibition in data set [1] (IC50) required 50 µM.
For `CC(C)[C@@H](NS(=O)(=O)c1ccc(-c2ccc(/C=C/c3cc4ccccc4o3)cc2)cc1)C(=O)O`, the IC50 in data set [1] came out at 0.4 µM. Against the preceding molecule, the IC50 is about 120-fold lower.
As for `CC(C)[C@@H](NS(=O)(=O)c1ccc(-c2ccc(OCc3cc4ccccc4o3)cc2)cc1)C(=O)O`, the IC50 in [1] turned out to be 1.4 µM.
In turn, `O=C(O)[C@@H](Cc1cc2ccccc2[nH]1)NS(=O)(=O)c1ccc(-c2ccccc2)cc1` had an IC50 in data set [1] of 2.8 µM.
Still for that read-out and setting: the same measure for `CC(C)[C@H](NS(=O)(=O)c1ccc(-c2ccccc2)cc1)C(=O)O`: > 100 µM; for `Cc1c(C(=O)Oc2ccc(-c3ccc(S(=O)(=O)N[C@@H](C(=O)O)C(C)C)cc3)cc2)oc2ccccc12`: 0.086 µM; for `CC(C)[C@@H](NS(=O)(=O)c1ccc(-c2ccc(NC(=O)c3cc4ccccc4o3)cc2)cc1)C(=O)O`: 7.5 µM.
For `O=C(O)CC[C@@H](NS(=O)(=O)c1ccc(-c2ccccc2)cc1)C(=O)O`, the IC50 in data set [1] amounted to 1.1 µM.
For the molecule `CC(C)[C@@H](NS(=O)(=O)c1ccc(-c2ccc(OC(=O)c3cc4ccccc4o3)cc2)cc1)C(=O)O`, in data set [1], the IC50 was 0.35 µM.
As to `O=C(O)[C@@H](Cc1ccccc1)NS(=O)(=O)c1ccc(-c2ccccc2)cc1`, the IC50 in data set [1] is 4.3 µM.
Still for that read-out and setting: as for `CC(C)[C@H](C(=O)O)N(C)S(=O)(=O)c1ccc(-c2ccccc2)cc1`, the figure is 1.6 µM.
Turning to `CC(C)[C@H](C(=O)O)N(Cc1cccnc1)S(=O)(=O)c1ccc(-c2ccccc2)cc1`, the IC50 in data set [1] stood at 12 µM.
The same measure, in the same setting: as for `CC(C)[C@@H](NS(=O)(=O)c1ccc(-c2ccccc2)c(N)c1)C(=O)O`, the figure is 30 µM; as for `CC(C)[C@@H](NS(=O)(=O)c1cccc(-c2ccccc2)c1)C(=O)O`, > 100 µM; as for `CC(C)[C@@H](NS(=O)(=O)c1ccc(-c2ccccc2)cc1)C(=O)O`, 3 µM.
As to `COc1ccc(S(=O)(=O)N(Cc2cccnc2)C(C(=O)NO)C(C)C)cc1` (single isomer, unassigned), in data set [2], the inhibition entry is “inactive”.
For `Cc1c(COc2ccc(-c3ccc(S(=O)(=O)N[C@H](Cc4ccccc4)C(=O)O)cc3)cc2)oc2ccccc12`, the IC50 against Interstitial collagenase is > 100 µM; in [3] it was 0.028 µM; in [4], 3 µM; in [1] it was 0.7 µM; against Collagenase 3, 0.0044 µM. For the same molecule, the clearance in data set [5] was 16.1 mL/min/kg. In addition, the bioavailability in data set [6] stood at 35%. In data set [7], this molecule registered a half-life of 4.62 h. Besides, the Cmax in data set [8] was found to be 1360 ng/mL. The inhibition in [9] was determined as 89%.
